Experimental data: patent US12195473B2, “KRAS mutant protein inhibitors” (JACOBIO PHARMACEUTICALS CO., LTD, priority 2019, dated 2025)

Key:
[1] = tested on: NCI-H358 cells expressing KRAS G12C; experiment: Phospho-ERK1/2(THR202/TYR204) HTRF assay; assay type: cell-based; settings: 2 hours incubation, read-out: p-ERK IC50
Experimental: NCI-H358 cells expressing KRAS G12C were cultured in RPMI 1640 medium (Gibco) containing 10% fetal bovine serum (Gibco). The NCI-H358 cells in culture medium were seeded in 96-well plates at a concentration of 40,000 cells/well and then put in a 37° C./5% CO2 cell incubator to incubate overnight. The next day, culture medium was removed and the compound diluted in assay medium (RPMI 1640, 0.1% FBS) was added in each well. After 2 hours incubation in a 37° C./5% CO2 cell incubator, the assay medium in 96-well plates was removed, then 50 μL of 1× blocking reagent-supplemented lysis buffer (Cisbio) was added and the plates were incubated at 25° C. for 45 min with shaking. 10 μL of cell lysates from the 96-well plates were transferred to a 384-well plate (Greiner) containing 2.5 μL/well HTRF® pre-mixed antibodies (Cisbio 64AERPEH). Incubate 4 hours at 25° C. and then read HTRF signals on Tecan Spark multimode microplate reader. The data were analyzed using a 4-parameter logistic model to calculate IC50 values.

[2] = Dog pharmacokinetic study; assay type: in vivo, beagle dog; settings: for CL / VSS / AUC0-24 h / Cmax / Oral BA (F %): beagle dog; for CL / VSS: 1 mg/kg, iv; for AUC0-24 h / Cmax / Oral BA (F %): 10 mg/kg, po
Experimental: 4. Dog Pharmacokinetic Study
The purpose of this study was to evaluate the pharmacokinetic properties of compounds in beagle dog following single dose administration. The day before administration, dogs were fasted overnight and free access to water. Four beagle dogs were needed for each compound and the four dogs were divided into two groups (one male (♂) and one female (♀) in each group). Dogs in group A were treated with a single 1 mg/kg dose of compound (iv). Dogs in group B were treated with a single 10 mg/kg dose of compound (po). For dogs in group A, blood samples were collected at pre-dose, and at the time point of 0.083, 0.25, 0.5, 1, 2, 4, 6, 8 and 24 h. For dogs in group B, blood samples were collected at pre-dose, and at the time point of 0.25, 0.5, 1, 2, 4, 6, 8 and 24 h post-dose. Blood samples were placed on ice until centrifugation to obtain plasma samples. The plasma samples were stored at −80° C. until analysis. The concentration of compound in plasma samples were determined using a LC-MS/MS method.

[3] = Cynomolgus monkey pharmacokinetic study; assay type: in vivo; settings: for CL / VSS / AUC0-24 h / Cmax / Oral BA (F %): Cynomolgus monkey; for CL / VSS: 1 mg/kg, iv; for AUC0-24 h / Cmax / Oral BA (F %): 3 mg/kg, po
Experimental: 5. Cynomolgus Monkey Pharmacokinetic Study
The purpose of this study was to evaluate the pharmacokinetic properties of compounds in Cynomolgus monkey following single dose administration. The day before administration, monkeys were fasted overnight and free access to water. Four monkeys are needed for each compound and the four monkeys were divided into two groups (one male(♂) and one female (♀) in each group), group A and group B. Monkeys in group A were treated with a single 1 mg/kg dose of compound (iv). Monkeys in group B were treated with a single 3 mg/kg dose of compound (po). For monkeys in group A, blood samples were collected at pre-dose, and at the time point of 0.083, 0.25, 0.5, 1, 2, 4, 6, 8 and 24 h. For monkeys in group B, blood samples were collected at pre-dose, and at the time point of 0.25, 0.5, 1, 2, 4, 6, 8 and 24 h post-dose. Blood samples were placed on ice until centrifugation to obtain plasma samples. The plasma samples were stored at −80° C. until analysis. The concentration of compound in plasma samples were determined using a LC-MS/MS method.

NCI-H1373 cells = experiment: Efficacy in NCI-H1373 xenograft model; assay type: in vivo, BALB/c nude mice
Experimental: 6. The Efficacy in NCI-H1373 Xenograft Model
NCI-H1373 cells (5.0E+06 cells) were injected subcutaneously into the right flank of female BALB/c nude mice (6-8 weeks) in a mixture with PBS and Matrigel (Corning) (PBS/Matrigel=1:1 (v/v)). Mice were monitored daily and caliper measurements began when tumors became visible. Tumor volume was calculated by measuring two perpendicular diameters using the formula: (L*W^2)/2 in which L and W refer to the length and width tumor diameter, respectively. When the average tumor volume reached 150-200 mm^3, mice were grouped randomly (n=6/group) and treated with compounds. Tumor volume and mice weight was measured twice a week during treatment (˜ 3 weeks). […] The results are in the following Table 13 and FIG. 8: […]

[4] = Safety exploration in MIA PaCa-2 xenograft model; assay type: in vivo; settings: MIA PaCa-2 xenograft mice, 400 mg/kg, po, QD, 22 days
Experimental: 7. Safety Exploration in MIA PaCa-2 xenograft Model
. Mice were monitored daily and caliper measurements began when tumors became visible. Tumor volume was calculated by measuring two perpendicular diameters using the following formula: (L*W^2)/2 in which L and W refer to the length and width tumor diameter, respectively. After mice were grouped to study the efficacy, the remaining mice (n=6) were used to explore the safety. The mice were treated with 400 mg/kg compound 1-2 (po, QD) for 22 days, and mice body weight was measured twice a week during treatment. […]

SMILES: C=CC(=O)N1CCN(c2c(C#N)c(=O)n(-c3c(C)ccnc3C(C)C)c3nc(-c4c(N)c(F)c(F)c(F)c4F)c(Cl)cc23)CC1 (atropisomer, axis not shown; (M)) [Compound 1-2, (M)-4-(4-acryloylpiperazin-1-yl)-7-(2-amino-3,4,5,6-tetrafluorophenyl)-6-chloro-1-(2-isopropyl-4-methylpyridin-3-yl)-2-oxo-1,2-dihydro-1,8-naphthyridine-3-carbonitrile]
- IC50 [1]: 10.2 nM
- Pharmacokinetic properties (in words) ([2]; beagle dog model, compared with Amgen 6 and 6.3): excellent pharmacokinetic properties
- CL ([2]; female): 18.1 mL/min/kg
- VSS ([2]; female): 1.1 L/kg
- AUC0-24 h ([2]; female): 5953 ng·h/mL
- Cmax ([2]; female): 2980 ng/mL
- Oral BA (F %) ([2]; female): 65.1%
- CL ([2]; male): 15.9 mL/min/kg
- VSS ([2]; male): 0.9 L/kg
- AUC0-24 h ([2]; male): 6724 ng·h/mL
- Cmax ([2]; male): 3420 ng/mL
- Oral BA (F %) ([2]; male): 64.3%
- CL ([3]; female): 7.19 mL/min/kg
- VSS ([3]; female): 0.86 L/kg
- AUC0-24 h ([3]; female): 6854 ng·h/mL
- Cmax ([3]; female): 2680 ng/mL
- Oral BA (F %) ([3]; female): 98.9%
- CL ([3]; male): 5.25 mL/min/kg
- VSS ([3]; male): 0.61 L/kg
- AUC0-24 h ([3]; male): 7938 ng·h/mL
- Cmax ([3]; male): 2030 ng/mL
- Oral BA (F %) ([3]; male): 83.5%
- Pharmacokinetic properties (in words) ([3]; monkey model): excellent pharmacokinetic properties
- TGI % (NCI-H1373 cells; 10 mg/kg, QD, Day 21): 103%
- Tumor volume at the end (Day 21) (NCI-H1373 cells; 10 mg/kg, QD, start volume 193 mm^3): 144 mm^3
- Efficacy in vivo (in words) (NCI-H1373 cells; Table 13 and FIG. 8): excellent efficacy in vivo
- Safety (mice body weight, FIG. 9) [4]: good safety
